In patent US20120196918A1, “PREVENTING ISLET INFLAMMATION AND DYSFUNCTION AND MAINTAINING PROPER GLUCOSE LEVELS BY CONTROLLING eIF5A AND ITS HYPUSINATION” (priority 2009, published 2012):

Assays:
[1] = tested on: STZ-treated NOD/Scid-(IL-2Rγ-null) mice; experiment: Multiple low-dose STZ model in immune-deficient NOD/Scid-(IL-2Rγ-null) mice; format: in vivo, mouse; conditions: multiple low-dose STZ (data not shown for si-eIF5A)
Experimental: To test the role of eIF5A in cytokine-mediated islet dysfunction, efforts were made to identify a mouse model of islet inflammation. The multiple low dose streptozotocin (STZ) model, in which mice are subjected to five daily intraperitoneal doses (at 55 mg/kg body weight) of STZ, is considered to provoke local islet inflammation and cytokine release, in part through the recruitment of CD11c+ dendritic cells that release pro-inflammatory cytokines in the area of STZ-induced cellular destruction (27 and 28).
As noted, low-dose STZ-induced islet dysfunction involves at least two mechanisms: an inflammatory mechanism that is dependent upon cytokine release from immune cells and a direct toxic mechanism on the islet itself. […] Next, islets from 3 C57BL/6J mice per group 24 h after the initial STZ treatment were isolated and pooled and their iNOS content determined by immunoblot. […]
Studies in vivo: Daily STZ injections to groups of 10 week-old C57BL/6J and NOD/Scid-(IL-2Rγ-null) mice proceeded as described previously (30) at a dose of 55 mg STZ per kg mouse weight for 5 days. […] Serum was analyzed using a Luminex system (Millipore) and a mouse cytokine/chemokines Panel 1 mutliplex kit (Millipore).

INS-1 cells = experiment: Live/dead two-colour fluorescence cytometry of INS-1 cells; format: cell-based, rat
Experimental: Because GC7 is known to be inactivated by the action amine oxidases, which are abundant in serum, typical studies with GC7 in the literature have used aminoguanidine to inhibit amine oxidases (16). […] To rule out possible adverse effects of GC7 on cell viability, quantitative 2 color fluorescence analysis of live (calcein-AM-positive) and dead (ethidium homodimer-1-positive) cells were performed using fluorescence cytometry.
For flow cytometry studies, INS-1 cells (serum starved or pretreated with GC7 as indicated in the figures) were stained with calcein-AM and ethidium homodimer 1 (Live/Dead® kit, Invitrogen) for 30 minutes, and 30,000 cells/sample were analyzed for green (living cells) and red (dead cells) fluorescence using a FACS Calibur (BD bioscience) instrument. For cell cycle analysis, 10^6 cells were washed in PBS and fixed in ice-cold 70% ethanol for 1 hour. After washing in PBS, cells were re-suspended in Guava cell cycle reagent (Millipore) and incubated at room temperature for 30 minutes. Intercalation of propidium iodide into cellular DNA was quantitated using a FACS Calibur instrument and the data analyzed for cell cycle status using Modfit software.

Nos2 mRNA = experiment: Nuclear export of Nos2 mRNA, subcellular fractionation of cytokine-treated INS-1 cells; format: cell-based, rat; conditions: cytokine-treated; GC7 100 μM overnight or leptomycin B 20 ng/ml 3 h
Experimental: Subcellular fractionation studies: Nuclear and cytoplasmic fractions of 1×10^6 cytokine-treated INS-1 cells exposed to vehicle, leptomycin B (20 ng/ml), or GC7 (100 μM) were prepared using the method of Dignam, et al. (76). Total RNA was isolated from nuclear and cytoplasmic fractions using the RNeasy® RNA isolation kit (Qiagen).
Quantitative RT-PCR: Five micrograms of total RNA from islets or INS-1 cells were reverse-transcribed as detailed previously (77). cDNA was subjected to quantitative PCR using SYBR Green-based technology and published primers for mouse Ins1/2 pre-mRNA (78) and QuantiTech® primers (Qiagen) for all other mouse genes. The Assay on Demand® kit (Applied Biosystems) was used to amplify rat genes in INS-1 cells and human genes in human islets. Thermal cycling was performed according to manufacturer's instructions, and the identity of each PCR product was verified by automated sequencing. All samples were corrected for total input RNA as quantitated by an Experion® (Bio-Rad) bioanalyzer. All data represent the average of triplicate determinations from at least 3 independent experiments.

[2] = tested on: LPS-treated NOD/Scid-(IL-2Rγ-null) mice; experiment: LPS injection model in NOD/Scid-(IL-2Rγ-null) mice; format: in vivo, mouse; conditions: GC7 4 mg/kg/day i.p.
Experimental: Because systemic GC7 delivery would be expected to inhibit hypusination in all cells that express DHS, it is unclear if the islet protection afforded by GC7 in vivo is a result of its effects in the islet, the immune cells, or both. In order to clarify this, the IL-1 responses in STZ-treated C57BL/6J animals were assessed by measuring levels of the IL-1-responsive cytokine IL-6. […] No alterations in serum levels of IL13 and Rantes/CCL5 were observed between treatment groups (FIG. 10F). […] To address the role of immune cells more directly, a mouse model was generated to test the role of hypusination in the islet inflammatory response independently of the immune system. Lipopolysaccharide (LPS) is an agent that evokes the NFkB response through activation of the toll-like receptor 4 (TLR4) (48), which is also expressed in pancreatic islets (49). […]
GSIS and IPGTT studies: For GSIS studies using isolated islets, approximately 50 islets or 1×10^6 INS-1 cells per condition were washed and incubated in Krebs-Ringer HEPES-buffered (KRB) solution for one hour at 37° C., and then placed in KRB solution containing 3 mM or 11 mM glucose for one hour. […] Blood glucose was measured from samples taken from the tail vein before intraperitoneal injection of 1 g glucose per kg mouse weight, and at 10, 20, 30, 60, 90, 120, and 180 minutes after glucose administration using an A1phaTrak® glucometer (Abbott). […]

5′-AACGGAAUGACUUCCAGCUGA-3′ (siSTABLE modification, further chemistry not given here) [si-eIF5A]
protection against glucose intolerance [1]: did not protect against glucose intolerance

NCCCCCCCN=C(N)N [GC7]
percentage of dead cells (INS-1 cells; 125 μM GC7, 3 days exposure): 70% | percentage of dead INS-1 cells (INS-1 cells; GC7 0 to 125 μM, overnight exposure, unaffected by concentration): 4-5% | distribution of mRNAs between nuclear and cytoplasmic fractions (Nos2 mRNA): relative nuclear retention of Nos2 mRNA | glucose intolerance in IPGTT 3 days after LPS ([2]; LPS 20 mg/kg single injection): no evidence of glucose intolerance | iNOS staining intensity in islets ([2]; LPS 20 mg/kg): increased iNOS staining intensity in islets of vehicle-treated animals, but not in GC7-treated animals
